According to the kinase profiling compilation of Christmann-Franck et al. (2016):
Several values for one entry are separate records, joined by “and”; a condition that tells them apart may be missing. Identical values can stand only once.

How the values were obtained:
Assay in all cases: radiometric filter-binding kinase assay, Kinase HotSpot
Conditions in all cases: compound 0.5 µM; ATP 10 µM
ACVR1B (human) = ACVR1B (human) (UniProt P36896)
AKT3 (human) = AKT3 (human) (UniProt Q9Y243)
BMX (human) = BMX (human) (UniProt P51813)
CAMKK1 (human) = CAMKK1 (human) (UniProt Q8N5S9)
CDK5 CDK5R1 p35 (human) = CDK5 CDK5R1 p35 (human) (UniProt Q00535+Q15078)
CLK4 (human) = CLK4 (human) (UniProt Q9HAZ1)
CSF1R (human) = CSF1R (human) (UniProt P07333)
CSNK1D (human) = CSNK1D (human) (UniProt P48730)
DYRK1A (human) = DYRK1A (human) (UniProt Q13627)
EPHB4 (human) = EPHB4 (human) (UniProt P54760)
ERBB2 (human) = ERBB2 (human) (UniProt P04626)
Chain of ERBB2 (human) (P04626 whole entry, looked up): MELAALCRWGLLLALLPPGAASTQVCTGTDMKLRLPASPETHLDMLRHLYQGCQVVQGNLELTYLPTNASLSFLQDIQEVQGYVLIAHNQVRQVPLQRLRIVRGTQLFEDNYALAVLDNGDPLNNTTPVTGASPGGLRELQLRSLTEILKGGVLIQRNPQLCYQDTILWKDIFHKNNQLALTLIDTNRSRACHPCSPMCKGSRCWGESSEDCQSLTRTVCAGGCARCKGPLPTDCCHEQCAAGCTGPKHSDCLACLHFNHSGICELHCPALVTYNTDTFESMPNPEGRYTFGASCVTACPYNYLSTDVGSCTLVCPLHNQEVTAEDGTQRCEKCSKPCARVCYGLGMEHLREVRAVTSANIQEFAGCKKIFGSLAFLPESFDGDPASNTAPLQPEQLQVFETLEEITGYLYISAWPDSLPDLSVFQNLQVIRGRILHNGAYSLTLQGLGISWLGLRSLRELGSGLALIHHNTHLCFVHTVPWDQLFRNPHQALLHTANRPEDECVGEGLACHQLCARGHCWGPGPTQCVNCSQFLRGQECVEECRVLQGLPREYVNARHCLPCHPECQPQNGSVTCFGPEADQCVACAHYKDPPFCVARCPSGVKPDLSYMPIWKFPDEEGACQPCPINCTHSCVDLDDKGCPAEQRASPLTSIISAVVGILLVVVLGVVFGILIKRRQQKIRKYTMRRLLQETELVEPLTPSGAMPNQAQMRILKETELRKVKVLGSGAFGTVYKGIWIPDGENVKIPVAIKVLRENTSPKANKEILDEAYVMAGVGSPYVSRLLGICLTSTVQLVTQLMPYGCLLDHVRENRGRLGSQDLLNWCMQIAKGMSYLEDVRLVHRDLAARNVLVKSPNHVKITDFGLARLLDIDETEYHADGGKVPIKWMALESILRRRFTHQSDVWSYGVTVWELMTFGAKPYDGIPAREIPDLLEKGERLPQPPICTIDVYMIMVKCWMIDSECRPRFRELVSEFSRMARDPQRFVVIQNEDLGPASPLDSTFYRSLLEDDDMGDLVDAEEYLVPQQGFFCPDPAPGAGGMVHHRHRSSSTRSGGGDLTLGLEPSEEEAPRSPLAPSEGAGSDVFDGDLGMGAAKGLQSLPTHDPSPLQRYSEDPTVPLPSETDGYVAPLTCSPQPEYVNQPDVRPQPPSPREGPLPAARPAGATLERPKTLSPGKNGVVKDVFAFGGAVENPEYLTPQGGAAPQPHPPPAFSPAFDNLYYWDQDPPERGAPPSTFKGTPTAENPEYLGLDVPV

FGFR1 (human) = FGFR1 (human) (UniProt P11362)
FGFR2 (human) = FGFR2 (human) (UniProt P21802)
Chain of FGFR2 (human) (P21802 whole entry, looked up): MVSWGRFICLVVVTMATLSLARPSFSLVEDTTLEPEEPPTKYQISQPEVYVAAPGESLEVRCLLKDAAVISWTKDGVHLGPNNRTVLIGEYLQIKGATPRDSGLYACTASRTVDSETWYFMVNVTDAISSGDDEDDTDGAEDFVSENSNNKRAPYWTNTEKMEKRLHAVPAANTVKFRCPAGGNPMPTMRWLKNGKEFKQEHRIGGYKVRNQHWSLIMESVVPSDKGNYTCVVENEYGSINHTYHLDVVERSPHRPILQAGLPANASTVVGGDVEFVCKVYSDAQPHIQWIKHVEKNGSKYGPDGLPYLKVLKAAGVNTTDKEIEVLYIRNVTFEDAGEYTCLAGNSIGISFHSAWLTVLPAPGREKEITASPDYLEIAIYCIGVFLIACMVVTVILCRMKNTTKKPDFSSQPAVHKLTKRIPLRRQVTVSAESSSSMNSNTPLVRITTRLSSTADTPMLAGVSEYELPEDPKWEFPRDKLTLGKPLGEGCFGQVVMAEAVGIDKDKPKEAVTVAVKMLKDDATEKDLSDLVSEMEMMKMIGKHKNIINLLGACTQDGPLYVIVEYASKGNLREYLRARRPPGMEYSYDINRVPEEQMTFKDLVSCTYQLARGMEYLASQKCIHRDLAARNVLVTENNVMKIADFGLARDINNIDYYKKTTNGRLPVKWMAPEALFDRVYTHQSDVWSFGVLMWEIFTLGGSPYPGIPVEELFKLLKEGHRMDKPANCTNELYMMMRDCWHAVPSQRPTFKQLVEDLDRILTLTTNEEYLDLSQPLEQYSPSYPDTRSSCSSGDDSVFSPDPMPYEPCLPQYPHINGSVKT

FGFR3 (human) = FGFR3 (human) (UniProt P22607)
ITK (human) = ITK (human) (UniProt Q08881)
Chain of ITK (human) (Q08881 whole entry, looked up): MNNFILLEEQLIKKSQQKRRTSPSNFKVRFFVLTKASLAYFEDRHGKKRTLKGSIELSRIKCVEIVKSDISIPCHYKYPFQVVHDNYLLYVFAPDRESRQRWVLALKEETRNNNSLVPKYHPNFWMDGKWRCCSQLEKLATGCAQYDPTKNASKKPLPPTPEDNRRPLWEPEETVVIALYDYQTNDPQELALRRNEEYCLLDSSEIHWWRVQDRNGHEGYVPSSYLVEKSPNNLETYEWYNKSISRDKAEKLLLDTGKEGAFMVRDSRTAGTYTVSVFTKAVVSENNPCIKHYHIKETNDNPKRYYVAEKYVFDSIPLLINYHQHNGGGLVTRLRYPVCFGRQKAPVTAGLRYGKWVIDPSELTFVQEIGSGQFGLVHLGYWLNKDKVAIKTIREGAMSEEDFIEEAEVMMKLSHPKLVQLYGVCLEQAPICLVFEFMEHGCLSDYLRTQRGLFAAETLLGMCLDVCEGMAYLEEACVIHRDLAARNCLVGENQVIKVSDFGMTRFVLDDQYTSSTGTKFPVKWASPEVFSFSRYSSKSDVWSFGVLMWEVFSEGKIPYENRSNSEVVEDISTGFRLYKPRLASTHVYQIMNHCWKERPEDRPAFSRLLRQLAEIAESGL

LCK (human) = LCK (human) (UniProt P06239)
LYN (human) = LYN (human) (UniProt P07948)
MAP3K8 (human) = MAP3K8 (human) (UniProt P41279)
MAPK11 (human) = MAPK11 (human) (UniProt Q15759)
MAPK3 (human) = MAPK3 (human) (UniProt P27361)
MARK3 (human) = MARK3 (human) (UniProt P27448)
Chain of MARK3 (human) (P27448 whole entry, looked up): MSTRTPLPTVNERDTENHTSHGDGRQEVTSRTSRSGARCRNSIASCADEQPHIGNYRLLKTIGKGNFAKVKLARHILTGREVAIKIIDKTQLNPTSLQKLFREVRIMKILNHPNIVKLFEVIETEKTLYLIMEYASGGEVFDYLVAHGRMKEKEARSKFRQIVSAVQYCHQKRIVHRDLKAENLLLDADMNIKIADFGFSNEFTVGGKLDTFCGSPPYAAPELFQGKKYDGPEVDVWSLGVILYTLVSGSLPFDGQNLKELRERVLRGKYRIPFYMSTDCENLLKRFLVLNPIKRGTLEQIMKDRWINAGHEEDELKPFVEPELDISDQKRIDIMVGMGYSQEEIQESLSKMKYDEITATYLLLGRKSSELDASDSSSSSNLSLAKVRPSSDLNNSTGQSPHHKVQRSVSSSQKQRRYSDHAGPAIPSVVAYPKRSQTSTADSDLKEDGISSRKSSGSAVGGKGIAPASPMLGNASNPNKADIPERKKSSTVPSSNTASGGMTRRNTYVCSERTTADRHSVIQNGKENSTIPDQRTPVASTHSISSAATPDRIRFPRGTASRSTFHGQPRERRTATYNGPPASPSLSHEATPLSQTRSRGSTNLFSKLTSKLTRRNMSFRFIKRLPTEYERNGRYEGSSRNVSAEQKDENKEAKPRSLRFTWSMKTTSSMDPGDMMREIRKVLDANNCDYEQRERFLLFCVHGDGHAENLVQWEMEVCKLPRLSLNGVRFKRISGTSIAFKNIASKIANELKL

MARK4 (human) = MARK4 (human) (UniProt Q96L34)
MST4 (human) = MST4 (human) (UniProt Q9P289)
OXSR1 (human) = OXSR1 (human) (UniProt O95747)
PHKG1 (human) = PHKG1 (human) (UniProt Q16816)
PLK1 (human) = PLK1 (human) (UniProt P53350)
PRKCH (human) = PRKCH (human) (UniProt P24723)
PRKCZ (human) = PRKCZ (human) (UniProt Q05513)
Chain of PRKCZ (human) (Q05513 whole entry, looked up): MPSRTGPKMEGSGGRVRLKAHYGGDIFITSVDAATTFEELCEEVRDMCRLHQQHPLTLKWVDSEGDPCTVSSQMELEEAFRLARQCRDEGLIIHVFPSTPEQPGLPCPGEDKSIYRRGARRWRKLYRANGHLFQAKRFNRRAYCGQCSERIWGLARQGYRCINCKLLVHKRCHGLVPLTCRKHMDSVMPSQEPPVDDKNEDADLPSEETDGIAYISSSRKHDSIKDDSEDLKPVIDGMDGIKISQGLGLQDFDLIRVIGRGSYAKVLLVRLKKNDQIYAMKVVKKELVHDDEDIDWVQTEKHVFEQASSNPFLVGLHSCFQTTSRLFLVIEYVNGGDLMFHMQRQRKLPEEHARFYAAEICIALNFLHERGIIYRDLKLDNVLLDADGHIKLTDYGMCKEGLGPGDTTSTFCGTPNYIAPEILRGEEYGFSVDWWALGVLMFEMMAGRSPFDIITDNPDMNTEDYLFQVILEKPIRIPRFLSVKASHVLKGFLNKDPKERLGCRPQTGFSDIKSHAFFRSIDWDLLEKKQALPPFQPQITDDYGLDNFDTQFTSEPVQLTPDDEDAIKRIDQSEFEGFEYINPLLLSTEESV

PRKD1 (human) = PRKD1 (human) (UniProt Q15139)
Chain of PRKD1 (human) (Q15139 whole entry, looked up): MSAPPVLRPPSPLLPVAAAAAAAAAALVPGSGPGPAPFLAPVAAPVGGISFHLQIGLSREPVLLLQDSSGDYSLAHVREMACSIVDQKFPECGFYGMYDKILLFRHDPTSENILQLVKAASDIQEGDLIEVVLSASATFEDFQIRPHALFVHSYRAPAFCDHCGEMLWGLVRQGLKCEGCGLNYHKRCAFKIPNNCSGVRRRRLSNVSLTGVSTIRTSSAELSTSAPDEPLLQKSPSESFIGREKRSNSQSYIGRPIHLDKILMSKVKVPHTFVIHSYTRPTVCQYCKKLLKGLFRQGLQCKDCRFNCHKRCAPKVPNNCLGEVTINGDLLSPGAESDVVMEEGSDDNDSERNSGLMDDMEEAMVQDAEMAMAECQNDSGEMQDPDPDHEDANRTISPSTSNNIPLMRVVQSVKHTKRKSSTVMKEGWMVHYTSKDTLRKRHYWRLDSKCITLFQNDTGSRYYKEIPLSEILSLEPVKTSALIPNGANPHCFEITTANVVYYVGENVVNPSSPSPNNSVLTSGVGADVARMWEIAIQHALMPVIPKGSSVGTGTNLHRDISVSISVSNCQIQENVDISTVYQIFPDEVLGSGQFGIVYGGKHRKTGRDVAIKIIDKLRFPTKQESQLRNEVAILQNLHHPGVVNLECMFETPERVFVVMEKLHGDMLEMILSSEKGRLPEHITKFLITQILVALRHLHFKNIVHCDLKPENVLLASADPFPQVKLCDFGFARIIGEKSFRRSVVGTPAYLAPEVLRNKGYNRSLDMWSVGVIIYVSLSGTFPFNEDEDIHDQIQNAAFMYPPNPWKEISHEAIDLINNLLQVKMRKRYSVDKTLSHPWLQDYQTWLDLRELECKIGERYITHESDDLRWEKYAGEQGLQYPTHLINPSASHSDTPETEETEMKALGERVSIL

PRKG1 (human) = PRKG1 (human) (UniProt Q13976)
PTK2B (human) = PTK2B (human) (UniProt Q14289)
ROCK2 (human) = ROCK2 (human) (UniProt O75116)
RPS6KA1 KD1 KD2 (human) = RPS6KA1 KD1 KD2 (human) (UniProt Q15418)
RPS6KA6 KD1 KD2 (human) = RPS6KA6 KD1 KD2 (human) (UniProt Q9UK32)
SGK2 (human) = SGK2 (human) (UniProt Q9HBY8)
SGK3 (human) = SGK3 (human) (UniProt Q96BR1)
SIK2 (human) = SIK2 (human) (UniProt Q9H0K1)
STK16 (human) = STK16 (human) (UniProt O75716)
STK4 (human) = STK4 (human) (UniProt Q13043)
TEC (human) = TEC (human) (UniProt P42680)
WEE1 (human) = WEE1 (human) (UniProt P30291)
WNK3 (human) = WNK3 (human) (UniProt Q9BYP7)

CC(=O)c1ccc(N2CCOCC2)cc1O
residual activity (ACVR1B (human)): 100% | residual activity (AKT3 (human)): 107% | residual activity (BMX (human)): 90.6% | residual activity (CAMKK1 (human)): 124% | residual activity (CDK5 CDK5R1 p35 (human)): 97.1% | residual activity (CLK4 (human)): 111% | residual activity (CSF1R (human)): 100% | residual activity (CSNK1D (human)): 100% | residual activity (DYRK1A (human)): 98% | residual activity (EPHB4 (human)): 97.6% | residual activity (ERBB2 (human)): 98.2% | residual activity (FGFR1 (human)): 91.4% | residual activity (FGFR2 (human)): 108% | residual activity (FGFR3 (human)): 105% | residual activity (ITK (human)): 97% | residual activity (LCK (human)): 100% | residual activity (LYN (human)): 106% and 98.8% | residual activity (MAP3K8 (human)): 99.4% | residual activity (MAPK11 (human)): 99.8% | residual activity (MAPK3 (human)): 103% | residual activity (MARK3 (human)): 108% | residual activity (MARK4 (human)): 99.4% | residual activity (MST4 (human)): 99.5% | residual activity (OXSR1 (human)): 115% | residual activity (PHKG1 (human)): 96.5% | residual activity (PLK1 (human)): 94.3% | residual activity (PRKCH (human)): 99.3% | residual activity (PRKCZ (human)): 111% | residual activity (PRKD1 (human)): 102% | residual activity (PRKG1 (human)): 100% and 84.1% | residual activity (PTK2B (human)): 102% | residual activity (ROCK2 (human)): 94.7% | residual activity (RPS6KA1 KD1 KD2 (human)): 92.4% | residual activity (RPS6KA6 KD1 KD2 (human)): 95.1% | residual activity (SGK2 (human)): 101% | residual activity (SGK3 (human)): 105% | residual activity (SIK2 (human)): 87% | residual activity (STK16 (human)): 110% | residual activity (STK4 (human)): 102% | residual activity (TEC (human)): 139% | residual activity (WEE1 (human)): 97.5%

Cc1[nH]c(/C=C2\C(=O)Nc3ccc(S(=O)(=O)N(C)c4cccc(Cl)c4)cc32)c(C)c1C(=O)N1CCN(C)CC1
residual activity (ACVR1B (human)): 102% | residual activity (AKT3 (human)): 107% | residual activity (BMX (human)): 97.3% | residual activity (CAMKK1 (human)): 93.3% | residual activity (CDK5 CDK5R1 p35 (human)): 95.8% | residual activity (CLK4 (human)): 34.3% | residual activity (CSF1R (human)): 64.9% | residual activity (CSNK1D (human)): 83.5% | residual activity (DYRK1A (human)): 94.1% | residual activity (EPHB4 (human)): 95.4% | residual activity (ERBB2 (human)): 91.5% | residual activity (FGFR1 (human)): 80% | residual activity (FGFR2 (human)): 74.1% | residual activity (FGFR3 (human)): 74.1% | residual activity (ITK (human)): 87.4% | residual activity (LCK (human)): 29.3% | residual activity (LYN (human)): 39.1% and 53.3% | residual activity (MAP3K8 (human)): 82.9% | residual activity (MAPK11 (human)): 103% | residual activity (MAPK3 (human)): 106% | residual activity (MARK3 (human)): 41.9% | residual activity (MARK4 (human)): 36.2% | residual activity (MST4 (human)): 63.5% | residual activity (OXSR1 (human)): 116% | residual activity (PHKG1 (human)): 45.2% | residual activity (PLK1 (human)): 96.9% | residual activity (PRKCH (human)): 88.7% | residual activity (PRKCZ (human)): 94.5% | residual activity (PRKD1 (human)): 61.8% | residual activity (PRKG1 (human)): 93.2% and 97.1% | residual activity (PTK2B (human)): 57.7% | residual activity (ROCK2 (human)): 58.2% | residual activity (RPS6KA1 KD1 KD2 (human)): 54.4% | residual activity (RPS6KA6 KD1 KD2 (human)): 67.8% | residual activity (SGK2 (human)): 103% | residual activity (SGK3 (human)): 101% | residual activity (SIK2 (human)): 86% | residual activity (STK16 (human)): 95.4% | residual activity (STK4 (human)): 49.1% | residual activity (TEC (human)): 86.7% | residual activity (WEE1 (human)): 81.8%

CNC(=O)c1cc(Oc2ccc(NC(=O)Nc3ccc(Cl)c(C(F)(F)F)c3)cc2)ccn1
residual activity (ACVR1B (human)): 102% | residual activity (AKT3 (human)): 94.2% | residual activity (BMX (human)): 93.3% | residual activity (CAMKK1 (human)): 103% | residual activity (CDK5 CDK5R1 p35 (human)): 99.9% | residual activity (CLK4 (human)): 95.2% | residual activity (CSNK1D (human)): 103% | residual activity (DYRK1A (human)): 103% | residual activity (ERBB2 (human)): 103% | residual activity (FGFR1 (human)): 90.9% | residual activity (FGFR2 (human)): 72.7% | residual activity (FGFR3 (human)): 89.5% | residual activity (ITK (human)): 106% | residual activity (LYN (human)): 88.1% and 98.8% | residual activity (MAP3K8 (human)): 93.6% | residual activity (MAPK11 (human)): 46.9% | residual activity (MAPK3 (human)): 105% | residual activity (MARK3 (human)): 103% | residual activity (MARK4 (human)): 98.1% | residual activity (MST4 (human)): 101% | residual activity (OXSR1 (human)): 103% | residual activity (PHKG1 (human)): 94.3% | residual activity (PLK1 (human)): 98.1% | residual activity (PRKCH (human)): 107% | residual activity (PRKCZ (human)): 94.5% | residual activity (PRKD1 (human)): 99.7% | residual activity (PRKG1 (human)): 104% and 88.6% | residual activity (PTK2B (human)): 101% | residual activity (ROCK2 (human)): 101% | residual activity (RPS6KA1 KD1 KD2 (human)): 101% | residual activity (RPS6KA6 KD1 KD2 (human)): 97.3% | residual activity (SGK2 (human)): 103% | residual activity (SGK3 (human)): 101% | residual activity (SIK2 (human)): 102% | residual activity (STK16 (human)): 105% | residual activity (STK4 (human)): 101% | residual activity (TEC (human)): 101% | residual activity (WEE1 (human)): 103% | residual activity (WNK3 (human)): 99.2%

COc1ccc(COc2ccc(Cc3cnc(N)nc3N)cc2OC)cc1
residual activity (ACVR1B (human)): 97.8% | residual activity (AKT3 (human)): 96.5% | residual activity (BMX (human)): 93.4% | residual activity (CAMKK1 (human)): 115% | residual activity (CLK4 (human)): 86.5% | residual activity (CSNK1D (human)): 98.5% | residual activity (DYRK1A (human)): 88.1% | residual activity (EPHB4 (human)): 90.5% | residual activity (ERBB2 (human)): 106% | residual activity (FGFR1 (human)): 108% | residual activity (FGFR2 (human)): 102% | residual activity (FGFR3 (human)): 105% | residual activity (ITK (human)): 98.1% | residual activity (LCK (human)): 96.3% | residual activity (LYN (human)): 98.1% and 99.9% | residual activity (MAP3K8 (human)): 98.4% | residual activity (MAPK11 (human)): 98.7% | residual activity (MAPK3 (human)): 99.1% | residual activity (MARK3 (human)): 103% | residual activity (MARK4 (human)): 89.7% | residual activity (MST4 (human)): 95.5% | residual activity (OXSR1 (human)): 103% | residual activity (PHKG1 (human)): 95.3% | residual activity (PLK1 (human)): 97.1% | residual activity (PRKCH (human)): 88.6% | residual activity (PRKCZ (human)): 93.4% | residual activity (PRKD1 (human)): 95.2% | residual activity (PRKG1 (human)): 91.7% and 98.3% | residual activity (PTK2B (human)): 86.1% | residual activity (ROCK2 (human)): 84.1% | residual activity (RPS6KA1 KD1 KD2 (human)): 92.7% | residual activity (RPS6KA6 KD1 KD2 (human)): 101% | residual activity (SGK2 (human)): 97.5% | residual activity (SGK3 (human)): 105% | residual activity (SIK2 (human)): 98.6% | residual activity (STK16 (human)): 106% | residual activity (STK4 (human)): 106% | residual activity (TEC (human)): 114% | residual activity (WEE1 (human)): 90.3% | residual activity (WNK3 (human)): 100%

c1ccc(-c2n[nH]cc2-c2ccnc3ccccc23)nc1
residual activity (ACVR1B (human)): 43.2% | residual activity (AKT3 (human)): 92.6% | residual activity (BMX (human)): 89.2% | residual activity (CAMKK1 (human)): 109% | residual activity (CDK5 CDK5R1 p35 (human)): 98.6% | residual activity (CLK4 (human)): 101% | residual activity (CSF1R (human)): 95.5% | residual activity (CSNK1D (human)): 44.2% | residual activity (DYRK1A (human)): 90.9% | residual activity (EPHB4 (human)): 89.1% | residual activity (ERBB2 (human)): 106% | residual activity (FGFR1 (human)): 94.2% | residual activity (FGFR2 (human)): 110% | residual activity (FGFR3 (human)): 97.4% | residual activity (ITK (human)): 102% | residual activity (LCK (human)): 91.7% | residual activity (LYN (human)): 100% and 87.8% | residual activity (MAP3K8 (human)): 91.1% | residual activity (MAPK11 (human)): 106% | residual activity (MAPK3 (human)): 101% | residual activity (MARK3 (human)): 87.5% | residual activity (MARK4 (human)): 105% | residual activity (MST4 (human)): 83.4% | residual activity (OXSR1 (human)): 85.3% | residual activity (PHKG1 (human)): 94.2% | residual activity (PLK1 (human)): 102% | residual activity (PRKCH (human)): 94.6% | residual activity (PRKCZ (human)): 115% | residual activity (PRKD1 (human)): 63% | residual activity (PRKG1 (human)): 86% and 92.7% | residual activity (PTK2B (human)): 96.1% | residual activity (ROCK2 (human)): 100% | residual activity (RPS6KA1 KD1 KD2 (human)): 88.1% | residual activity (RPS6KA6 KD1 KD2 (human)): 112% | residual activity (SGK2 (human)): 101% | residual activity (SGK3 (human)): 97.4% | residual activity (SIK2 (human)): 94.8% | residual activity (STK16 (human)): 100% | residual activity (STK4 (human)): 101% | residual activity (TEC (human)): 106% | residual activity (WEE1 (human)): 91.1%
